In one assay the target is cathepsin L (Homo sapiens, UniProt P07711). Nature of the assay: FRET enzymatic assay. The assay is classed as biochemical.
The target in assay [1] is T1, MERS-CoV M^pro (Human betacoronavirus 2c EMC/2012, UniProt K0BWD0). The assay is classed as biochemical. To be noted: read-out: KI.
The target in assay [2] is T1, MERS-CoV M^pro. Nature of the assay: biochemical.

Like-named read-outs stand apart in the source and are kept apart here.

Chain of cathepsin L (P07711 114-288): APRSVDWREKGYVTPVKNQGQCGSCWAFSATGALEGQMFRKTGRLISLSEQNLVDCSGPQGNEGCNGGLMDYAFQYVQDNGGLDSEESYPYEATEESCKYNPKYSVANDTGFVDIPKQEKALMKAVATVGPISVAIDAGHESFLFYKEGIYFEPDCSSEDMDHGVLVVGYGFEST
Chain of cathepsin L (P07711 292-333): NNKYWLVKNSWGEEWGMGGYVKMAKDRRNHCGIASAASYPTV
T1 sequence (K0BWD0 3248-3553 limits assumed): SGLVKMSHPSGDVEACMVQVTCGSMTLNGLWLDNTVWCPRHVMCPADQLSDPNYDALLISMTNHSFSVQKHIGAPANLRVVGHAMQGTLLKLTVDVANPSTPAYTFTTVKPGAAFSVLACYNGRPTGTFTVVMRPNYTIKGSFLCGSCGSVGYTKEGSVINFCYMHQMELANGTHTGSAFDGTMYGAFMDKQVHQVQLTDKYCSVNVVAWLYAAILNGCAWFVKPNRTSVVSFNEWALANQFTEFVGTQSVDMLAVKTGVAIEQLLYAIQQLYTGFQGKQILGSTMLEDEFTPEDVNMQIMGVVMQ

As for `CC(C)C[C@H](NC(=O)[C@@H]1O[C@H]1C(=O)O)C(=O)NCCCCN=C(N)N` [E-64, reference compound], the IC50 (commonly the point on the concentration scale where inhibition reaches its midpoint) against cathepsin L worked out at 5.45 nM.
For `CC(C)(C)NC(=O)N[C@H](C(=O)N1C[C@H]2[C@@H]([C@H]1C(=O)NC(CC1CCC1)C(=O)C(N)=O)C2(C)C)C(C)(C)C` (some centres unmarked) [boceprevir], the KI (inactivation) at MERS-CoV M^pro [1] was 1650 ± 120 nM. The same compound had an IC50 on cathepsin L of 153 nM.
Take `CCCC(NC(=O)[C@H](CC(C)C)NC(=O)OCc1ccccc1)C(=O)C(=O)NCc1ccccn1` (some centres unmarked) [calpain inhibitor XII]: at cathepsin L (individual value only in figure), the IC50 result was “calpain inhibitors II and XII and GC-376 had potent inhibition against cathepsin L”. Further, affinity on MERS-CoV M^pro [2] was put at a Ki of 1320 ± 70 nM.
